Experimental data published in US8969389B2, “Substituted 6-methylnicotinamides as mGluR5 positive allosteric modulators” (Vanderbilt University, priority 2010, dated 2015).
Where two headings read alike, the source gives them in different places.

Legend:
[1] = target: T1, human mGluR5 (Homo sapiens, UniProt P41594); assay: Potentiation of glutamate response in HEK cells transfected with human mGluR5 (H10H cell line), Ca2+ fluorescence, FDSS; type: cell-based; settings: read-out: hmGluR5 EC50 (H10H cell line)
T1 construct: expressed in transfected cells; host or cells: HEK cells, H10H cell line
Protocol: (§1) Human embryonic kidney (HEK) cells transfected with rat mGluR5 were plated in clear bottom assay plates for assay in a Functional Drug Screening System (FDSS). In the alternative assay, HEK cells transfected with human mGluR5 (H10H cell line) were plated for assay in the FDSS. […] The cells were loaded with a Ca^2+-sensitive fluorescent dye (e.g., Fluo-4), and the plates were washed and placed in the FDSS instrument. After establishment of a fluorescence baseline for twelve seconds, the compounds of the present invention were added to the cells, and the response in cells was measured. Five minutes later, an mGluR5 agonist (e.g., glutamate, 3,5-dihydroxyphenylglycine, or quisqualate) was added to the cells, and the response of the cells was measured. Potentiation of the agonist response of mGluR5 by the compounds in the present invention was observed as an increase in response to non-maximal concentrations of agonist (here, glutamate) in the presence of compound compared to the response to agonist in the absence of compound.
(§2) The above described assay operated in two modes. In the first mode, a range of concentrations of the present compounds were added to cells, followed by a single fixed concentration of agonist. If a compound acted as a potentiator, an EC50 value for potentiation and a maximum extent of potentiation by the compound at this concentration of agonist was determined by non-linear curve fitting. In the second mode, several fixed concentrations of the present compounds were added to various wells on a plate, followed by a range of concentrations of agonist for each concentration of present compound; the EC50 values for the agonist at each concentration of compound were determined by non-linear curve fitting. A decrease in the EC50 value of the agonist with increasing concentrations of the present compounds (a leftward shift of the agonist concentration-response curve) is an indication of the degree of mGluR5 potentiation at a given concentration of the present compound. An increase in the EC50 value of the agonist with increasing concentrations of the present compounds (a rightward shift of the agonist concentration-response curve) is an indication of the degree of mGluR5 antagonism at a given concentration of the present compound. The second mode also indicates whether the present compounds also affect the maximum response to mGluR5 to agonists.

[2] = target: T2, rat mGluR5 (Rattus norvegicus, UniProt P31424); assay: Potentiation of glutamate response in HEK cells transfected with rat mGluR5 (Ca2+ fluorescence, FDSS); type: cell-based
T2 construct: expressed in transfected cells; host or cells: HEK (human embryonic kidney) cells
Protocol: as §1, §2

[3] = HEK cells transfected with rat mGluR5, read-out: rmGlu5 PAM EC50
[4] = (R) and (S) enantiomers, Tables 3A/3B, read-out: mGluR5 EC50

T1 sequence (P41594 21-1212): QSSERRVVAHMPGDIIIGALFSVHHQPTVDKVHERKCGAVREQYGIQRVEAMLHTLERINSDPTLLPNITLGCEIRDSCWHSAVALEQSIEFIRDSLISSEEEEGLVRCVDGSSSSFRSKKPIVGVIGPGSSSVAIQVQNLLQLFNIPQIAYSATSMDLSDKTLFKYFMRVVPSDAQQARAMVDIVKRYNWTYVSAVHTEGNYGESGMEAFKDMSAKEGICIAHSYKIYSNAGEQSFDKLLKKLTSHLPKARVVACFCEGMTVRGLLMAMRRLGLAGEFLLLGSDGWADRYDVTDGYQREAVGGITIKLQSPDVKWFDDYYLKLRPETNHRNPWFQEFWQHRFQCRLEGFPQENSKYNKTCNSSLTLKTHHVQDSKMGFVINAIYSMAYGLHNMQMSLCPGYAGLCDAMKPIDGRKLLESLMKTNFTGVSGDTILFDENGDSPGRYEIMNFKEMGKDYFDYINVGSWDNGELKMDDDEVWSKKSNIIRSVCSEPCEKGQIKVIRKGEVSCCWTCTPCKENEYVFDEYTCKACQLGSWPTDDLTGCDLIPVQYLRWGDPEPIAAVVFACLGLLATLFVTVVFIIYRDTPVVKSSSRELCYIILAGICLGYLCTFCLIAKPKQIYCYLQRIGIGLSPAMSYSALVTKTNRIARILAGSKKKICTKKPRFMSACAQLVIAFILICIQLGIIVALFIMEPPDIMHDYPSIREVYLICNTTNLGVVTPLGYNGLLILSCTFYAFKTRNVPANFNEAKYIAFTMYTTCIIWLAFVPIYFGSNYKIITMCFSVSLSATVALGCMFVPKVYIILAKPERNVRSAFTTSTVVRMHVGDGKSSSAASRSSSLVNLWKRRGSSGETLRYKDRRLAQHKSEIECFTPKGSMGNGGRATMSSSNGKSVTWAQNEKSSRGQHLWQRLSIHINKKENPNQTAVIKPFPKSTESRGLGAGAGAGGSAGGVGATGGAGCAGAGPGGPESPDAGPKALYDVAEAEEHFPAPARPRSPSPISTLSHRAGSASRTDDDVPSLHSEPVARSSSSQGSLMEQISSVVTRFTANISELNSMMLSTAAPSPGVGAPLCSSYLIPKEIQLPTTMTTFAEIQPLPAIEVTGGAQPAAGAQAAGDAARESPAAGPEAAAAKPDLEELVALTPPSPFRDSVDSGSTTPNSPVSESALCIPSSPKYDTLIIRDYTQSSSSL
T2 sequence (P31424 21-1203): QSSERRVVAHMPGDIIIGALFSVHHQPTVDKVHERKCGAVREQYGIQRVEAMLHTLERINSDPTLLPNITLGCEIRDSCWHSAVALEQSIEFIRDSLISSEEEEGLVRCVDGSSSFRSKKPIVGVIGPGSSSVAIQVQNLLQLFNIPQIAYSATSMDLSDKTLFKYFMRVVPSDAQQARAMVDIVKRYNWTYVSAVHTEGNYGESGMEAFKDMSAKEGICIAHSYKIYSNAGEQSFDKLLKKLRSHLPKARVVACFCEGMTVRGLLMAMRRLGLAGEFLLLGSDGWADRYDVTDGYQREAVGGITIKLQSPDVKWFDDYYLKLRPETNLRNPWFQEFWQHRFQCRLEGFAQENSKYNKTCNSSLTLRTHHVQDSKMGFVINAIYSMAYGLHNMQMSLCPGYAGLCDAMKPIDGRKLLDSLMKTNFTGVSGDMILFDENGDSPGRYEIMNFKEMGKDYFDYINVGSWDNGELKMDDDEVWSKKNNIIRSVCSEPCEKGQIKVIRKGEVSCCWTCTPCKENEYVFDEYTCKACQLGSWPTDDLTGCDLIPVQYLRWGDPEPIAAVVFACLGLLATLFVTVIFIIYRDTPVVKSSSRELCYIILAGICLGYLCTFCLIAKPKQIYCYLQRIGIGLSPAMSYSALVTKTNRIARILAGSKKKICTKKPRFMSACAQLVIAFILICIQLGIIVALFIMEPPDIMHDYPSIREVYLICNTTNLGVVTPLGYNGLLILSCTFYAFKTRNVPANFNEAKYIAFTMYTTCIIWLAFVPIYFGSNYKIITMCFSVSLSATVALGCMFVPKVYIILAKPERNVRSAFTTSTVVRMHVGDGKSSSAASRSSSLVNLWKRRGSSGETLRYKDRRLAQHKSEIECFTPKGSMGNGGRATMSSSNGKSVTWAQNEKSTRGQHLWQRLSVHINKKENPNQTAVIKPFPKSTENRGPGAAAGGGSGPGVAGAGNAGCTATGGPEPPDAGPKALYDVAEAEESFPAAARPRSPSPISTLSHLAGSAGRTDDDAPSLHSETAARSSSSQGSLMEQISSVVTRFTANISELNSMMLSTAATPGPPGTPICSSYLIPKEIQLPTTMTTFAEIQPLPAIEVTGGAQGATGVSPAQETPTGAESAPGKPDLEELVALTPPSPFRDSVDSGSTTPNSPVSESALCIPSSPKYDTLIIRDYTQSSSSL

| SMILES | EC50 [2, 3] [nM] | also measured |
| --- | --- | --- |
| O=C(NC(c1ccc(F)cc1)C(F)(F)F)c1ccc(COc2cccc(F)c2)nc1 (stereo not shown) | – | EC50 [1]: > 10000 nM |
| Cc1cc(OCc2ccc(C(=O)N[C@H](C)C(C)(C)C)cn2)ccn1 | – | EC50 [1]: > 10000 nM |
| Cc1cc(OCc2ccc(C(=O)N[C@H](C)C3CCCCC3)cn2)ccn1 | – | EC50 [1]: > 10000 nM |
| CC1(O)CC(NC(=O)c2ccc(COc3cccc(F)c3)nc2)C1 (stereo not shown) | – | EC50 [1]: > 10000 nM |
| C[C@@H](NC(=O)c1ccc(COc2cncnc2)nc1)C(C)(C)C | – | EC50 [1]: > 10000 nM |
| C[C@@H](NC(=O)c1ccc(COc2cncc(F)c2)nc1)C(C)(C)C | – | EC50 [1]: > 10000 nM |
| C[C@@H](NC(=O)c1ccc(COc2cncc(C(F)(F)F)c2)nc1)C1CCCCC1 | – | EC50 [1]: > 10000 nM |
| C[C@@H](NC(=O)c1ccc(COc2cncc(C(F)(F)F)c2)nc1)C(C)(C)C | – | EC50 [1]: > 10000 nM |
| CC(NC(=O)c1ccc(COc2cccc(F)c2)nc1)c1nccs1 (stereo not shown) | – | EC50 [1]: > 10000 nM |
| O=C(N[C@H]1C[C@@H]2CC[C@H]1C2)c1ccc(COc2cccc(F)c2)nc1 | – | EC50 [1]: 550 nM |
| C[C@@H](NC(=O)c1ccc(COc2cncc(Cl)c2)nc1)C1CCCCC1 | – | EC50 [1]: > 10000 nM |
| O=C(NCCN1CCOCC1)c1ccc(COc2ccccc2)nc1 | > 10000 | – |
| C[C@@H](NC(=O)c1ccc(COc2cccc(F)c2)nc1)C1CCC1 | 138 | – |
| C[C@@H](NC(=O)c1ccc(COc2cncc(Cl)c2)nc1)C(C)(C)C | – | EC50 [1]: > 10000 nM |
| O=C(NCC1CCCCC1)c1ccc(COc2ccccc2)nc1 | 575 | – |
| O=C(Nc1nccs1)c1ccc(COc2cccc(F)c2)nc1 | > 10000 | – |
| O=C(NC(c1ccccn1)C(F)(F)F)c1ccc(COc2cccc(F)c2)nc1 (stereo not shown) | – | EC50 [1]: > 10000 nM |
| CC(C)(C)CCNC(=O)c1ccc(COc2cc(F)cc(C#N)c2)nc1 | > 10000 | – |
| C[C@@H](NC(=O)c1ccc(COc2ccccc2C#N)nc1)C1CCCCC1 | > 10000 | – |
| C[C@H](NC(=O)c1ccc(COc2ccccc2)nc1)C1CCCCC1 | 2880 | – |
| O=C(N[C@@H]1C[C@H]2CC[C@@H]1C2)c1ccc(COc2cccc(F)c2)nc1 | – | EC50 [1]: 170 nM |
| C[C@@H](NC(=O)c1ccc(COc2cncc(F)c2)nc1)C1CCCCC1 | – | EC50 [1]: 2700 nM |
| COCCNC(=O)c1ccc(COc2ccccc2)nc1 | > 10000 | – |
| O=C(NC1CCC1)c1ccc(COc2cccc(F)c2)nc1 | 3470 | – |
| COCCCNC(=O)c1ccc(COc2ccccc2)nc1 | > 10000 | – |
| COc1cccc(OCc2ccc(C(=O)N[C@H](C)C3CCCCC3)cn2)c1 | 1200 | – |
| CC(NC(=O)c1ccc(COc2cccc(F)c2)nc1)C(F)(F)F (stereo not shown) | – | EC50 [1]: 3200 nM |

| SMILES | EC50 [2, 3] [nM] | also measured |
| --- | --- | --- |
| CC(C)CNC(=O)c1ccc(COc2ccccc2)nc1 | 1700 | – |
| C[C@@H](NC(=O)c1ccc(COc2ccc(C#N)cc2)nc1)C1CCCCC1 | 2500 | – |
| O=C(NC1C2CC3CC(C2)CC1C3)c1ccc(COc2ccccc2)nc1 (stereo not shown) | 288 | – |
| CC(C)CCNC(=O)c1ccc(COc2ccccc2)nc1 | 966 | – |
| CC(NC(=O)c1ccc(COc2cccc(F)c2)nc1)C1CCCOC1 (stereo not shown) | – | EC50 [1]: 440 nM |
| C[C@@H](NC(=O)c1ccc(COc2cccc(Cl)c2)nc1)C1CCCCC1 | 210 | – |
| O=C(Nc1ccc(Cl)cc1)c1ccc(COc2ccccc2)nc1 | > 10000 | – |
| O=C(Nc1ccncc1)c1ccc(COc2ccccc2)nc1 | > 10000 | – |
| COc1ccccc1OCc1ccc(C(=O)N[C@H](C)C2CCCCC2)cn1 | 3400 | – |
| O=C(NCCN1CCCCC1)c1ccc(COc2ccccc2)nc1 | > 10000 | – |
| N#Cc1cc(F)cc(OCc2ccc(C(=O)NC3(c4ccccc4)CCC3)cn2)c1 | > 10000 | – |
| C[C@@H](NC(=O)c1ccc(COc2cccc(F)c2)nc1)C1CCCCC1 [drawing 67] | 130 | – |
| C[C@H](NC(=O)c1ccc(COc2cccc(F)c2)nc1)C(C)(C)C [drawing 189] | – | EC50 [1]: > 10000 nM |
| O=C(NC12CC3CC(CC(C3)C1)C2)c1ccc(COc2ccccc2)nc1 | 603 | – |
| O=C(NC1CCCCC1)c1ccc(COc2cc(F)cc(F)c2)nc1 | > 10000 | – |
| C[C@@H](NC(=O)c1ccc(COc2cccc(F)c2)nc1)C(C)(C)C [drawing 65] | 81.3 | – |
| O=C(NC1CC(O)(C(F)(F)F)C1)c1ccc(COc2cccc(F)c2)nc1 (stereo not shown) [drawing 172] | – | EC50 [1]: > 10000 nM |
| CC1(CNC(=O)c2ccc(COc3cccc(F)c3)nc2)COC1 | – | EC50 [1]: > 10000 nM |
| C[C@@H](NC(=O)c1ccc(COc2cccc(F)c2)nc1)C1CCOCC1 | 3240 | – |
| CC(C)NC(=O)c1ccc(COc2cccc(F)c2)nc1 | > 10000 | – |
| O=C(NCCc1ccc(Cl)cc1)c1ccc(COc2ccccc2)nc1 | > 10000 | – |
| O=C(NC(C1CC1)C1CC1)c1ccc(COc2cccc(F)c2)nc1 | 1260 | – |
| C[C@@H](NC(=O)c1ccc(COc2cccc(F)c2)nc1)C1CCCCC1 [drawing 73] | 170 | – |
| C[C@@H](NC(=O)c1ccc(COc2cccc(C#N)c2)nc1)C1CCCCC1 | 220 | – |
| CC[C@@H](C)NC(=O)c1ccc(COc2cccc(F)c2)nc1 | 3310 | – |
| O=C(Nc1nccs1)c1ccc(COc2cc(F)cc(F)c2)nc1 | > 10000 | – |
| O=C(Nc1cc(F)cc(F)c1)c1ccc(COc2ccccc2)nc1 | > 10000 | – |

| SMILES | EC50 [2, 3] [nM] | also measured |
| --- | --- | --- |
| O=C(Nc1ncccc1F)c1ccc(COc2ccccc2)nc1 | > 10000 | – |
| O=C(Nc1ccc(F)cn1)c1ccc(COc2ccccc2)nc1 | 1510 | – |
| CC1(C)CC(CNC(=O)c2ccc(COc3cccc(F)c3)nc2)CCO1 (stereo not shown) | > 10000 | – |
| O=C(Nc1cccc(F)c1)c1ccc(COc2ccccc2)nc1 | > 10000 | – |
| O=C(NC1(c2ccccc2)CCC1)c1ccc(COc2cc(F)cc(F)c2)nc1 | > 10000 | – |
| C[C@@H](NC(=O)c1ccc(COc2cccc(F)c2)nc1)C1CCCCC1 [drawing 74] | 172 | – |
| O=C(NC1CC2CCC1C2)c1ccc(COc2ccccc2)nc1 (stereo not shown) [drawing 66] | 120 | – |
| O=C(Nc1cccc(F)c1F)c1ccc(COc2ccccc2)nc1 | > 10000 | – |
| O=C(NC1CCC1)c1ccc(COc2cc(F)cc(F)c2)nc1 | 3390 | – |
| CC(C)NC(=O)c1ccc(COc2cc(F)cc(C#N)c2)nc1 | > 10000 | – |
| C[C@@H](NC(=O)c1ccc(COc2cccc(F)c2)nc1)C1CCCCC1 [Example 11a, (R)-N-(1-cyclohexylethyl)-6-((3-fluorophenoxy)methyl)nicotinamide] | – | EC50 [2, 4]: 130 nM |
| C[C@@H](NC(=O)c1ccc(COc2cccc(F)c2)nc1)C(C)(C)C [Example 13a, (R)-N-(3,3-dimethylbutan-2-yl)-6-((3-fluorophenoxy)methyl)nicotinamide] | – | EC50 [2, 4]: 81 nM |
| CC(C)(C)CCNC(=O)c1ccc(COc2cccc(F)c2)nc1 | 302 | – |
| C[C@@H](NC(=O)c1ccc(COc2ccccn2)nc1)C1CCCCC1 | > 10000 | – |
| O=C(NC(C1CC1)C(F)(F)F)c1ccc(COc2cccc(F)c2)nc1 (stereo not shown) | 1900 | – |
| C[C@H](NC(=O)c1ccc(COc2cc(F)cc(F)c2)nc1)C1CCCCC1 [drawing 149] | > 10000 | – |
| O=C(Nc1nccs1)c1ccc(COc2ccccc2)nc1 | 1200 | – |
| O=C(NCCCN1CCOCC1)c1ccc(COc2ccccc2)nc1 | > 10000 | – |
| O=C(Nc1ccc(F)cc1F)c1ccc(COc2ccccc2)nc1 | 501 | – |
| O=C(Nc1ccccn1)c1ccc(COc2ccccc2)nc1 | 5250 | – |
| C[C@@H](NC(=O)c1ccc(COc2ccncc2)nc1)C1CCCCC1 | 2600 | – |
| CC(C)[C@@H](C)NC(=O)c1ccc(COc2cccc(F)c2)nc1 | 158 | – |
| O=C(Nc1cccc(Cl)c1)c1ccc(COc2ccccc2)nc1 | > 10000 | – |
| O=C(NCCc1ccccn1)c1ccc(COc2ccccc2)nc1 | > 10000 | – |
| C[C@@H](NC(=O)c1ccc(COc2ccccc2)nc1)C1CCCCC1 [drawing 78] | 257 | – |
